From PMC5564600 (Oncotarget, 2017)
Where “and” joins values, the source holds several entries; their conditions need not be identical. Equal values may be shown once. Read-outs that look alike come from different tables or passages of the source.

Legend:
Experiment in all cases: biochemical
Format in all cases: binding
panel of 442 kinases [1] = biological target: T1, panel of 442 kinases (Homo sapiens, UniProt Q92918); conditions: kinase HPK1; for remaining activity at 1 µM: read-out: % of control at 1 µM
T1 construct: purchased Ambit Biosciences (scanMAXX KINOMEscan)
T1 sequence (Q92918 whole entry): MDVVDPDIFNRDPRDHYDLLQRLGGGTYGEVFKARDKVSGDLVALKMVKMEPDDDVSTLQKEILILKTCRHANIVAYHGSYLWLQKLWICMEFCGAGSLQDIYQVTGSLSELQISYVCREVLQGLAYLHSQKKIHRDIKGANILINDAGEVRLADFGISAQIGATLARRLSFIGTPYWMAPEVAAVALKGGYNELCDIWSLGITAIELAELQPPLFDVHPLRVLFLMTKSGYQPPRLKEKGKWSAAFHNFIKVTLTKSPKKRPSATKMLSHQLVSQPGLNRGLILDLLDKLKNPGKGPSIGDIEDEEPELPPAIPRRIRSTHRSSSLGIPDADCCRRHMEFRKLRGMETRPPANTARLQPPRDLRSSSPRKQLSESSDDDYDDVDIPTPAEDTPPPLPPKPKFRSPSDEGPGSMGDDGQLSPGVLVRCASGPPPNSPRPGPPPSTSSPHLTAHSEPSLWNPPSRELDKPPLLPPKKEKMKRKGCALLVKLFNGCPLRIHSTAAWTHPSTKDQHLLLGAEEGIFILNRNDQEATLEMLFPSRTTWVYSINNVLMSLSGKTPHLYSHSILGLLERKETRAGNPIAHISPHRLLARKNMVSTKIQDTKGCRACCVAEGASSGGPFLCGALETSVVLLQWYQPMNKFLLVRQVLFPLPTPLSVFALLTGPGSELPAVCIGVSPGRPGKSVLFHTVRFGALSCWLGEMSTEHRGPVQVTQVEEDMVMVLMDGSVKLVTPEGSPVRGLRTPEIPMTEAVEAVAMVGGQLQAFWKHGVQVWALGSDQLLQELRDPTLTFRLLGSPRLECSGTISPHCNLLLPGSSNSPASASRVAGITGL

panel of 442 kinases [2] = biological target: T2, panel of 442 kinases (Homo sapiens, UniProt Q7KZI7); conditions: kinase MARK2; for remaining activity at 1 µM: read-out: % of control at 1 µM
T2 construct: purchased Ambit Biosciences (scanMAXX KINOMEscan)
T2 sequence (Q7KZI7 whole entry): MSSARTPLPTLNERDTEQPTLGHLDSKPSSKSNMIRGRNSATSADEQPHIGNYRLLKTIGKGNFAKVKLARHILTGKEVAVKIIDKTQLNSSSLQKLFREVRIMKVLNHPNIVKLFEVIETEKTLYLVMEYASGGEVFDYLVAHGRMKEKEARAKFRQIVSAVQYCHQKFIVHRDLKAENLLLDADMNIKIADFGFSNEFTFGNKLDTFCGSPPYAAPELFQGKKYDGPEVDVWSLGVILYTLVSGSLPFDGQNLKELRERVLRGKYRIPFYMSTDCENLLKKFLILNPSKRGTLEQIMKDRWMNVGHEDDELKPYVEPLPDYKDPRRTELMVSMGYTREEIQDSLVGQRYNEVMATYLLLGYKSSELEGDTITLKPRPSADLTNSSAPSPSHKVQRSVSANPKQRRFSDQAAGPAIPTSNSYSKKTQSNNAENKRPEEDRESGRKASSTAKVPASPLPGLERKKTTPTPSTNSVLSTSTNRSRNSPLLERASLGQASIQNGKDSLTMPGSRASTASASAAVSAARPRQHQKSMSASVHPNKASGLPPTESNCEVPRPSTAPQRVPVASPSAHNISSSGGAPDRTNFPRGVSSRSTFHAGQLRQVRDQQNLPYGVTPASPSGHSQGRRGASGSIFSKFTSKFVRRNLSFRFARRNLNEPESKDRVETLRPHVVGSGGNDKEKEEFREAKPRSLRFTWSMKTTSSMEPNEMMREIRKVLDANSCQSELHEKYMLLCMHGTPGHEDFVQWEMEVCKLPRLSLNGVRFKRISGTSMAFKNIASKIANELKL

panel of 442 kinases [3] = biological target: T3, panel of 442 kinases (Homo sapiens, UniProt P08581, M1250T); conditions: kinase MET(M1250T)
T3 construct: purchased Ambit Biosciences (scanMAXX KINOMEscan)

panel of 442 kinases [4] = biological target: T4, panel of 442 kinases (Homo sapiens, UniProt P53350); conditions: kinase PLK1; for remaining activity at 1 µM: read-out: PLK1 (% of control at 1 µM)
T4 construct: purchased Ambit Biosciences (scanMAXX KINOMEscan)
T4 sequence (P53350 whole entry): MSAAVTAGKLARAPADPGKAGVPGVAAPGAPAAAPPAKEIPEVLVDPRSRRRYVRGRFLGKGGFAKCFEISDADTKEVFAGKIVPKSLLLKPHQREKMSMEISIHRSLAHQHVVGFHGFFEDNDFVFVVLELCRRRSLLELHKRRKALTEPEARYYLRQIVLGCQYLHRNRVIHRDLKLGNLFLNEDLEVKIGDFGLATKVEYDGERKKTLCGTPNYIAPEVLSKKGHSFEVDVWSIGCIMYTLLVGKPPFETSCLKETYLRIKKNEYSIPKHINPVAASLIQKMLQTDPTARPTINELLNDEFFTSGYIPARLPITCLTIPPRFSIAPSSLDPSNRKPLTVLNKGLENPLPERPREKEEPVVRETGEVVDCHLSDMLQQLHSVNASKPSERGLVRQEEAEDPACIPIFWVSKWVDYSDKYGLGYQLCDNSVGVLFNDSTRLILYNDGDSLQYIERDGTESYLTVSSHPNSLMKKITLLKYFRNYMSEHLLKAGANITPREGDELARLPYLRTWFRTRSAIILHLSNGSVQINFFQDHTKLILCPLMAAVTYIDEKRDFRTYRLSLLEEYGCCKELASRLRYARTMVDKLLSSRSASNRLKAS

panel of 442 kinases [5] = biological target: T5, panel of 442 kinases (Homo sapiens, UniProt Q9P286); conditions: kinase PAK7; for remaining activity at 1 µM: read-out: % of control at 1 µM
T5 construct: purchased Ambit Biosciences (scanMAXX KINOMEscan)
T5 sequence (Q9P286 whole entry): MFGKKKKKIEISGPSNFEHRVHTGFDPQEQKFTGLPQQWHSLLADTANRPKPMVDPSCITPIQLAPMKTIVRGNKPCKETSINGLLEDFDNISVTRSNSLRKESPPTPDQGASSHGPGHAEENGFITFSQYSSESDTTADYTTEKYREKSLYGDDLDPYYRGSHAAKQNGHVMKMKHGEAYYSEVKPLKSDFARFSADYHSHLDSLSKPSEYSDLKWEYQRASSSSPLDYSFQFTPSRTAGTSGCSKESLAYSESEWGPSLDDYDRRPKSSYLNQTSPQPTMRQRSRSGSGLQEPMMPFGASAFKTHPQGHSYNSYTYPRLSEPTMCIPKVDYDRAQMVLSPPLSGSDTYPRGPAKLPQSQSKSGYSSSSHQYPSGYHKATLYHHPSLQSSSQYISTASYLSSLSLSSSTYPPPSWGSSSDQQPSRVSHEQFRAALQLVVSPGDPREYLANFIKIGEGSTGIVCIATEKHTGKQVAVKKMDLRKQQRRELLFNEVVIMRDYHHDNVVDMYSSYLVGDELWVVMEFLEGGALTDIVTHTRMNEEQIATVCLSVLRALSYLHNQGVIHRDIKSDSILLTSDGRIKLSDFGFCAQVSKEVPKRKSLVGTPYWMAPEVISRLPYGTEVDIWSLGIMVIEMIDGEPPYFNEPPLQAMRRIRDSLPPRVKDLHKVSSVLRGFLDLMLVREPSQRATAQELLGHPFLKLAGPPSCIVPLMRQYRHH

panel of 442 kinases [6] = system: panel of 442 kinases
panel of 442 kinases [7] = biological target: T6, panel of 442 kinases (Homo sapiens, UniProt Q8TDX7); conditions: kinase NEK7; for remaining activity at 1 µM: read-out: % of control at 1 µM
T6 construct: purchased Ambit Biosciences (scanMAXX KINOMEscan)
T6 sequence (Q8TDX7 whole entry): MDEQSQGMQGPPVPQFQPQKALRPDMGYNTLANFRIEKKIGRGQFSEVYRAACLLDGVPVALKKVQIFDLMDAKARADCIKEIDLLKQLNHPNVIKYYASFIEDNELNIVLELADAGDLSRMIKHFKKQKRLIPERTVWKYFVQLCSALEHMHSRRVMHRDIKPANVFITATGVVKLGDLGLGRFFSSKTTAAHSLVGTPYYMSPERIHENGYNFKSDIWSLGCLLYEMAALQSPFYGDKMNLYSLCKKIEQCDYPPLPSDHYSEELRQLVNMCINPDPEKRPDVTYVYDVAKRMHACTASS

panel of 442 kinases [8] = biological target: T7, panel of 442 kinases (Homo sapiens, UniProt P53671); conditions: kinase LIMK2; for remaining activity at 1 µM: read-out: % of control at 1 µM
T7 construct: purchased Ambit Biosciences (scanMAXX KINOMEscan)

panel of 442 kinases [9] = biological target: T8, panel of 442 kinases (Homo sapiens, UniProt Q9BX84); conditions: kinase TRPM6; for remaining activity at 1 µM: read-out: TRPM6 (% of control at 1 µM)
T8 construct: purchased Ambit Biosciences (scanMAXX KINOMEscan)

panel of 442 kinases [10] = biological target: T9, panel of 442 kinases (Homo sapiens, UniProt Q86UX6); conditions: kinase YANK3; for remaining activity at 1 µM: read-out: YANK3 (% of control at 1 µM)
T9 construct: purchased Ambit Biosciences (scanMAXX KINOMEscan)
T9 sequence (Q86UX6 whole entry): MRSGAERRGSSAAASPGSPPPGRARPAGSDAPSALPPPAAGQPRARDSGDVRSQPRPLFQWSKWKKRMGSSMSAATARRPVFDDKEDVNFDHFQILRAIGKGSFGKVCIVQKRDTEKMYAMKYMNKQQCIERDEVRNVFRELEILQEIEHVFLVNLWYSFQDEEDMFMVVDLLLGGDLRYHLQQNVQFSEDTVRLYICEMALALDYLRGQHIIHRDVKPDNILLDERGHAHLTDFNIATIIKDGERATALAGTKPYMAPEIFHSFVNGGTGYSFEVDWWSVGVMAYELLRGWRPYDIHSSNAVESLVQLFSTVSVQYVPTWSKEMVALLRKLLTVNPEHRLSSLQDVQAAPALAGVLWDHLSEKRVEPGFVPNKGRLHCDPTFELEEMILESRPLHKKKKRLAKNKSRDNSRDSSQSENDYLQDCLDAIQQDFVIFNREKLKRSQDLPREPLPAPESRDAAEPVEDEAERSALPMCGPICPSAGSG

panel of 442 kinases [11] = biological target: T10, panel of 442 kinases (Homo sapiens, UniProt P00519, F317I); conditions: for remaining activity at 1 µM: read-out: % of control at 1 µM; for remaining activity at 10 µM: read-out: % of control at 10 µM
T10 construct: purchased Ambit Biosciences (scanMAXX KINOMEscan)
T10 sequence (P00519 whole entry F317I): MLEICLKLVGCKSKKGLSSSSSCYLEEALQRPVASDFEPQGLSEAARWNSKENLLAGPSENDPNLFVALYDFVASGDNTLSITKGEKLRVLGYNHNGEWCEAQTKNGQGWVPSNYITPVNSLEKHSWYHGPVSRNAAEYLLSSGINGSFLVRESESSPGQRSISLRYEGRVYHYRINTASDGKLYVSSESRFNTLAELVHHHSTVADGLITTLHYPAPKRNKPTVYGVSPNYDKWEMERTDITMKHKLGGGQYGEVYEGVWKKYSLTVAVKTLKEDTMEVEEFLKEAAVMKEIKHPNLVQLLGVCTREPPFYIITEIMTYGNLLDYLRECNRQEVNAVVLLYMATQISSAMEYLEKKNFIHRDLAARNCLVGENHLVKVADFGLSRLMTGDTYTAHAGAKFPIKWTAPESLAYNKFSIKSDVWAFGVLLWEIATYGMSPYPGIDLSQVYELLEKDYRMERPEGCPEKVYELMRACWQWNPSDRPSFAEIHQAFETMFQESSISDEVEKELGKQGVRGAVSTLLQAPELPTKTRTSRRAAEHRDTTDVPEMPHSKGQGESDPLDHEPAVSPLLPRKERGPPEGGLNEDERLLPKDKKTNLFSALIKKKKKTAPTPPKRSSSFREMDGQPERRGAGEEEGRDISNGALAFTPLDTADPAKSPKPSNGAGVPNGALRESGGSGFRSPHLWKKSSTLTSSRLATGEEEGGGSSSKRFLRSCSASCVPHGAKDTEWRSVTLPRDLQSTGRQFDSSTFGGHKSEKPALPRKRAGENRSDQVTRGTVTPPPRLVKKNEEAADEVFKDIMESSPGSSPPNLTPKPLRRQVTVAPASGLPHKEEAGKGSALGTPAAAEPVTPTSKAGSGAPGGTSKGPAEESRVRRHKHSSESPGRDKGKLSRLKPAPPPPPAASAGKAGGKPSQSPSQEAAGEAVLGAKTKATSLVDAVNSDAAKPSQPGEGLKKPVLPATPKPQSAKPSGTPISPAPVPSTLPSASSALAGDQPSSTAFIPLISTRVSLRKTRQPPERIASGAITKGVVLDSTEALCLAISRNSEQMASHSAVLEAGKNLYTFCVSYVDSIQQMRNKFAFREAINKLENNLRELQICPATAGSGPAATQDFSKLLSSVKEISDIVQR

panel of 442 kinases [12] = biological target: T11, panel of 442 kinases (Homo sapiens, UniProt O14733); conditions: kinase MKK7; for remaining activity at 1 µM: read-out: % of control at 1 µM
T11 construct: purchased Ambit Biosciences (scanMAXX KINOMEscan)
T11 sequence (O14733 1-419): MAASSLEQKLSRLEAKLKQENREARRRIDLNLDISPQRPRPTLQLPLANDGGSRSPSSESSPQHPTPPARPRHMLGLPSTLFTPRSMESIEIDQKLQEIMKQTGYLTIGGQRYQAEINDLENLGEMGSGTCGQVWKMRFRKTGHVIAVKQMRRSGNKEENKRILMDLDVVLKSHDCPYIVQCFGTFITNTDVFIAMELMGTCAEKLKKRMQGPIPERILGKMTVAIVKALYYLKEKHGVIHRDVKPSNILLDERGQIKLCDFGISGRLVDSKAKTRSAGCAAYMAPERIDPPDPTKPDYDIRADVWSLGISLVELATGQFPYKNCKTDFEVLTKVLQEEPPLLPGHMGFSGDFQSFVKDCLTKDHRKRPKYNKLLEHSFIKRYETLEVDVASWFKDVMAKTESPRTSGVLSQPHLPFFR

panel of 442 kinases [13] = biological target: T12, panel of 442 kinases (Homo sapiens, UniProt O14965); conditions: AURKA; for remaining activity at 1 µM: read-out: % of control at 1 µM
T12 construct: purchased Ambit Biosciences (scanMAXX KINOMEscan)
T12 sequence (O14965 1-403): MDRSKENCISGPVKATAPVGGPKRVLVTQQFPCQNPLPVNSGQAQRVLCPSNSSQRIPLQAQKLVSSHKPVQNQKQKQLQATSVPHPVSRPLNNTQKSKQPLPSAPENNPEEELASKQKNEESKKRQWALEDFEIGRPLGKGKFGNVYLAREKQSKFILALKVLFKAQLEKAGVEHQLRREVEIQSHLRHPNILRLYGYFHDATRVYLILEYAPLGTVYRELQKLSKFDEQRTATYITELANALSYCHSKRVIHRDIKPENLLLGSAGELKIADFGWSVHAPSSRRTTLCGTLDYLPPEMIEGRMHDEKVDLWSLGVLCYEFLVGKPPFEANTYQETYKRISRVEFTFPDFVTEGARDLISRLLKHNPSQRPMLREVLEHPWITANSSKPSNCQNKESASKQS

panel of 442 kinases [14] = biological target: T13, panel of 442 kinases (Homo sapiens, UniProt P30530); conditions: AXL; for remaining activity at 1 µM: read-out: % of control at 1 µM
T13 construct: purchased Ambit Biosciences (scanMAXX KINOMEscan)
T13 sequence (P30530 26-894): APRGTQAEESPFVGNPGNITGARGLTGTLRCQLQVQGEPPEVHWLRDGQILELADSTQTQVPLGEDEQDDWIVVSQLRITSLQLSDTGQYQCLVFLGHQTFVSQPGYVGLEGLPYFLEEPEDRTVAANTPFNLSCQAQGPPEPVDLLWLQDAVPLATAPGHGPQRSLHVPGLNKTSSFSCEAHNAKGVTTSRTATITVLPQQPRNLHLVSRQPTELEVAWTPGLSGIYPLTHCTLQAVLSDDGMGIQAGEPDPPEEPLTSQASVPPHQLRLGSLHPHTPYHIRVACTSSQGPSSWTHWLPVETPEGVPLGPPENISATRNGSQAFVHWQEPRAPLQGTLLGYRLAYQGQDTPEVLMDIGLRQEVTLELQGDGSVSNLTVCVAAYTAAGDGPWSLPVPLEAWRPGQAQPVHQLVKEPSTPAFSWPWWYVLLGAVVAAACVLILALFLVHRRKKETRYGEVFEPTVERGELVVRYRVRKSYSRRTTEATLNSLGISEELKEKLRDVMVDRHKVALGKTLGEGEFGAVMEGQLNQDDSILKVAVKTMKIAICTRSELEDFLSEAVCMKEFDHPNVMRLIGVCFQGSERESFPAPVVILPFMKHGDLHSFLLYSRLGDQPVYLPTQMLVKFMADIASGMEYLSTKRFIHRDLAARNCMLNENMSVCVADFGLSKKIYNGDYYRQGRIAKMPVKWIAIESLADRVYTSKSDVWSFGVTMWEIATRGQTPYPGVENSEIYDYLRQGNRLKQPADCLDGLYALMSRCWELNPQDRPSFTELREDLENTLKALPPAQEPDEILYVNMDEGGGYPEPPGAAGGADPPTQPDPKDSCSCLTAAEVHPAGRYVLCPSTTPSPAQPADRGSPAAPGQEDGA

[15] = 10 µM, read-out: % of control at 10 µM

Row | Structure (SMILES) | remaining activity at 1 µM (panel of 442 kinases [1]) [%] | remaining activity at 1 µM (panel of 442 kinases [2]) [%] | remaining activity at 1 µM (panel of 442 kinases [4]) [%] | remaining activity at 1 µM (panel of 442 kinases [5]) [%] | % of control at 1 µM (panel of 442 kinases [6]; 1 μM) | remaining activity at 1 µM (panel of 442 kinases [7]) [%] | remaining activity at 1 µM (panel of 442 kinases [8]) [%] | remaining activity at 1 µM (panel of 442 kinases [9]) [%] | remaining activity at 1 µM (panel of 442 kinases [10]) [%] | remaining activity at 1 µM (panel of 442 kinases [11]; ABL1(F317I)-nonphosphorylated) [%] | remaining activity at 1 µM (panel of 442 kinases [11]; ABL1(F317I)-phosphorylated) [%] | remaining activity at 1 µM (panel of 442 kinases [12]) [%] | remaining activity at 1 µM (panel of 442 kinases [13]) [%] | remaining activity at 1 µM (panel of 442 kinases [14]) [%] | other results
1 | Nc1cc(C(F)(F)F)c(-c2cc(N3CCOCC3)nc(N3CCOCC3)n2)cn1 [Buparlisib] | 92 | 100 | 65 | 78 | 85 % of control and 100 % of control and 91 % of control and 86 % of control | 100 | 100 | 76 | 94 | 100 | 78 | 100 | 100 | 89 | remaining activity at 10 µM (panel of 442 kinases [1]; [15]): 100%; remaining activity at 10 µM (panel of 442 kinases [2]; [15]): 71%; remaining activity at 1 µM (panel of 442 kinases [3]; 1 µM, read-out: % of control at 1 µM): 92%; remaining activity at 10 µM (panel of 442 kinases [3]; [15]): 100%; remaining activity at 10 µM (panel of 442 kinases [4]; 10 µM, read-out: PLK1 (% of control at 10 µM)): 84%; remaining activity at 10 µM (panel of 442 kinases [5]; [15]): 69%; % of control at 10 µM (panel of 442 kinases [6]; 10 μM): 96 % of control and 100 % of control and 93 % of control and 88 % of control; remaining activity at 10 µM (panel of 442 kinases [7]; [15]): 94%; remaining activity at 10 µM (panel of 442 kinases [8]; [15]): 100%; remaining activity at 10 µM (panel of 442 kinases [9]; 10 µM, read-out: TRPM6 (% of control at 10 µM)): 75%; remaining activity at 10 µM (panel of 442 kinases [10]; 10 µM, read-out: YANK3 (% of control at 10 µM)): 100%; remaining activity at 10 µM (panel of 442 kinases [11]; ABL1(F317I)-nonphosphorylated): 100%; remaining activity at 10 µM (panel of 442 kinases [11]; ABL1(F317I)-phosphorylated): 100%; remaining activity at 10 µM (panel of 442 kinases [12]; [15]): 99%; remaining activity at 10 µM (panel of 442 kinases [13]; [15]): 91%; remaining activity at 10 µM (panel of 442 kinases [14]; [15]): 100%
2 | Cn1c(=O)n(-c2ccc(C(C)(C)C#N)cc2)c2c3cc(-c4cnc5ccccc5c4)ccc3ncc21 [Dactolisib, 2-methyl-2-[4-(3-methyl-2-oxo-8-quinolin-3-yl-2,3-dihydroimidazo[4,5-c]quinolin-1-yl)-phenyl] propionitrile] | 64 | 65 | 93 | 73 | 81 % of control and 100 % of control and 86 % of control and 59 % of control | 90 | 91 | 62 | 88 | 100 | 100 | 100 | 100 | 48 | % of control at 1 µM (panel of 442 kinases [6]; FLT3(ITD), 1 µM): 44 % of control
